Results on 1 compound are retold here after article PMC11467779, “New anti-ovarian cancer quinolone derivatives acting by modulating microRNA processing machinery” (RSC Medicinal Chemistry, 2024).

For assay [1], the system named is SKOV-3 cell line. The assay is described as follows: Antiproliferative effect against the SKOV-3 cell line (GI50, cell count). It is filed as cell-based, human. Here is the method: (§1) SKOV-3, A2780 and A2780 CIS were cultured and maintained, as previously described,[50] at 37 °C in RPMI 1640 medium (Euroclone) supplemented with 10% fetal bovine serum (FBS; Euroclone), L-glutamine and penicillin/streptomycin (SIGMA-ALDRICH). OVCA433, HEK-293T, HeLa, HCCLM3, SK-Hep-1, MCF-7, A549 and HCT-116 cells were maintained in DMEM medium (Euroclone) containing 10% FBS (Euroclone), L-glutamine and penicillin/streptomycin (SIGMA-ALDRICH). Wi-38 cells were cultured in DMEM medium (Euroclone) supplemented with 10% FBS (Euroclone), L-glutamine and penicillin/streptomycin (SIGMA-ALDRICH), and 1% non-essential amino acids (NEAA; Euroclone). The cultures were maintained in a constant temperature incubator at 37 °C with 5% CO2. […] Once cell adhesion had been promoted, the compounds were added to the culture medium. After 72 hours of treatment, the cells were counted, and the data analyzed by linear regression. Each experiment was carried out three times in triplicate and three separate cell counts were made for each sample. […] Afterwards, the concentration range was narrowed to the relative value obtained in the first evaluation in order to obtain an accurate value.

The test system of assay [2] is OVCA433. Briefly: Antiproliferative effect against OVCA433 (GI50). In kind it is cell-based. The note with it: Homo sapiens, 72 hours of treatment, cell count. Here is the method:
as §1

Assay [3] concerns A2780. Briefly: Antiproliferative effect against A2780 (GI50). In kind it is cell-based. The note with it: Homo sapiens, 72 hours of treatment, cell count. The protocol: as §1
Assay [4] addresses T1, TRBP (Homo sapiens, UniProt Q15633).
T1 sequence (Q15633 1-366): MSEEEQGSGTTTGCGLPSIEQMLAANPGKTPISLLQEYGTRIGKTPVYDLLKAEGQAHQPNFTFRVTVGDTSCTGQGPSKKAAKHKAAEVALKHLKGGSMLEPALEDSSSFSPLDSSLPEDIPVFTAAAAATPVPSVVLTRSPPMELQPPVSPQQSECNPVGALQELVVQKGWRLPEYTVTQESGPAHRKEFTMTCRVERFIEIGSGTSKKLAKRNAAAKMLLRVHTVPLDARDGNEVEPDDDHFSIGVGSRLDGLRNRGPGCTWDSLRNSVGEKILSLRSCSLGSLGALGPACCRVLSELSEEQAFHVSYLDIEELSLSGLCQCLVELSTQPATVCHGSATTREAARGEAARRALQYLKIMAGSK
Briefly: Surface plasmon resonance (SPR) assay on TRBP. It is filed as binding. The note with it: versus enoxacin. Here is the method:
Following the manufacturer's instructions, the BIAcore Sensor Chip (CM5) underwent initial activation using a mixture of NHS and EDC. Subsequently, recombinant human TRBP proteins at a concentration of 20 μg mL^−1 (in 10 mM sodium acetate, pH 4.0) were injected over the CM5 chip. After reaching a coupling level of 12 000 RU, a 1 M ethanolamine hydrochloride was injected to block the chip, preventing nonspecific binding. All the compounds were diluted in HBS-EP buffer (10 mM HEPES, pH 7.4, 3 mM EDTA, 150 mM NaCl, and 0.005% surfactant P-20) with 1% DMSO. Samples were injected at a rate of 10 μL min^−1 for 120 seconds, followed by a dissociation phase of 90 seconds. After each cycle, a 50% DMSO solution was used to regenerate the chip surface and restore the sensorgram baseline. Binding analysis was performed using BIA evaluation version 3.2 software, determining the […] (KD).

The target in assay [5] is T2, hTopII (Homo sapiens, UniProt P11388).
T2 construct: endogenous in cells
The assay is described as follows: Detection of hTOP2α cleavage complexes (cleavage assay). It is filed as cell-based. The note with it: 100 μM. The protocol:
After compound treatments, 1 × 10^6 human cells in 35 mm dish per sample were washed with 1× phosphate-buffered saline (PBS) and lysed with 600 μL of DNAzol (Invitrogen), followed by precipitation with 300 μL of 200 proof ethanol. The nucleic acids were collected, washed with 75% ethanol, resuspended in 200 μL of TE buffer, and then heated at 65 °C for 15 min, followed by shearing with sonication (40% output for 10 s pulse and 10 s rest for four times). The samples were centrifuged at 15 000 rpm for 5 min at 4 °C, and the supernatant were collected. 1 μL of each sample was removed for spectrophotometric measurement of absorbance at 260 nm to quantitate DNA content (NanoDrop). 2 μg of each sample was subjected to slot-blot for immunoblotting using anti-hTOP1 antibody (BD Pharmingen, 556597) and anti-hTOP2α antibody (Santa Cruz biotechnology, 365916).[51]

Assay [6] relates to miR-21-5p biogenesis. The assay is described as follows: miR-21-5p luciferase reporter (psi-R21 / psi-CTRL) in HeLa cells. It is filed as cell-based, human. The protocol:
HeLa cells were transfected with 10 ng of psi-R21 or psi-CTRL using Lipofectamine™ 2000 (Thermo Fisher Scientific) and after 48 hours were treated with either enoxacin or 33 at 20 μM and 50 μM. After 6 hours Renilla luciferase (RLuc) and firefly luciferase (FLuc) activities were measured using the Dual-Luciferase® Reporter Assay System (Promega), following the manufacturer's instructions, and GloMax® Discover Microplate Reader (Promega).
The binding site for miR-21 was cloned into psiCHECK™-2 Vector (Promega), downstream the Renilla cDNA, by inverted PCR using the following oligonucleotides: 21MRE_FW […]; 21MRE_REV […]. The resulting construct was named psi-R21.

Assay [7] concerns MCF-7 (breast cancer). Briefly: Proliferation of MCF-7 cells (trypan blue count). It is filed as cell-based, human. The following applies: 30 μM, 72 hours. Here is the method:
(§2) A2780 and SKOV-3 cells were treated with 50 μM of 33 for 72 h before RNA and protein extraction and expression analyses. A2780 and A2780 CIS were treated with 33 (30 μM) and/or cisplatin (1 μM, Sigma-Aldrich) for 48 hours while MCF-7, A549 and HCT-116 were treated with 33 (30 μM) for 72 hours. Total cell number and viability have been assessed using Trypan Blue Solution (Thermo Fisher Scientific) and Countess™ 3 Automated Cell Counter (Thermo Fisher Scientific).

Assay [8] relates to HCT-116 (colon cancer). The assay is described as follows: Proliferation of HCT-116 cells (trypan blue count). It is filed as cell-based, human. The note with it: 30 μM, 72 hours. Here is the method:
as §2

Assay [9] concerns cisplatin-resistant A2780 cells (A2780 CIS). The assay is described as follows: Viable cells of cisplatin-resistant A2780 (A2780 CIS) treated with 33, cisplatin or both. It is filed as cell-based, human. The note with it: 48 hours. Here is the method: as §2

Entries after “also recorded” stand apart in the source; their conditions may differ.

T2 sequence (P11388 whole entry): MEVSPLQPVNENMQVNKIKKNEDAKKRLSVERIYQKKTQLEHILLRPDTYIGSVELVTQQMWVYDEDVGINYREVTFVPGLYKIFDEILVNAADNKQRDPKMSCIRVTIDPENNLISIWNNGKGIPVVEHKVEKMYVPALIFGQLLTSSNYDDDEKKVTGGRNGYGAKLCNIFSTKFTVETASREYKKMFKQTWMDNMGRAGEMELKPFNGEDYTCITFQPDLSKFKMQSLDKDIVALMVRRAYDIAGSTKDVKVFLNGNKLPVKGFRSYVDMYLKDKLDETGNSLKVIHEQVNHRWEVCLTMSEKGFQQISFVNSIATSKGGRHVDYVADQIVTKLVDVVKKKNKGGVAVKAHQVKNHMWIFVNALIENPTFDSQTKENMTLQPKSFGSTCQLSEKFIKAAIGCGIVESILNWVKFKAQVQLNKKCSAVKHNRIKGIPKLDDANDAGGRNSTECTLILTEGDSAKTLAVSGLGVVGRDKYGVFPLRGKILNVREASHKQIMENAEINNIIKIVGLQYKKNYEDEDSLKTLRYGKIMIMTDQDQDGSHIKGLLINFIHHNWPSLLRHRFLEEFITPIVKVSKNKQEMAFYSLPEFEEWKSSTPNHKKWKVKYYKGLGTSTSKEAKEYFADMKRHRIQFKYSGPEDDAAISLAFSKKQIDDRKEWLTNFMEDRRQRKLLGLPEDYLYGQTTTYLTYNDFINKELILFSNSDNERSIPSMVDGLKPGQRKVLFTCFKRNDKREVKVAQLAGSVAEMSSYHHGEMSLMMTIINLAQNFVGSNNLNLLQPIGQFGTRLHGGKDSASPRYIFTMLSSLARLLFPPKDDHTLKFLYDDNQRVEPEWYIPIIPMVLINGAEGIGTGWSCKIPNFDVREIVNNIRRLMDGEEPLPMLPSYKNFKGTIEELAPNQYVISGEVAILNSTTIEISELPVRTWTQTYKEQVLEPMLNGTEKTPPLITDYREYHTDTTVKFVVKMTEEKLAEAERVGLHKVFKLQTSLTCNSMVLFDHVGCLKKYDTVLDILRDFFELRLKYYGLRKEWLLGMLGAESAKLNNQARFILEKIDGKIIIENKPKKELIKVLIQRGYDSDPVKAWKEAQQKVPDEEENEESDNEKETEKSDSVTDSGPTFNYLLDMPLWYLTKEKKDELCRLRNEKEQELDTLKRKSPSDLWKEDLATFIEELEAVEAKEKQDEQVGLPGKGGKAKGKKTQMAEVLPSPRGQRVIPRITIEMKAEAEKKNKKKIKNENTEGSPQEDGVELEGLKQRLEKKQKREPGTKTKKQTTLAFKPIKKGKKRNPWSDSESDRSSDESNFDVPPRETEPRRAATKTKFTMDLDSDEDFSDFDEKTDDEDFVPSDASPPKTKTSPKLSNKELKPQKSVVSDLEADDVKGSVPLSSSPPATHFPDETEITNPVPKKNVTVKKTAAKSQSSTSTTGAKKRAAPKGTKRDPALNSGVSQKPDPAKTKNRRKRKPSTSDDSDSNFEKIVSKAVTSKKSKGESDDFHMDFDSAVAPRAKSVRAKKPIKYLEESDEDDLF

For `O=C(O)c1cn(C2CC2)c2cc(N3CCc4ccccc4C3)c(F)cc2c1=O` [Compound 33, 1-Cyclopropyl-7-(3,4-dihydroisoquinolin-2(1H)-yl)-6-fluoro-4-oxo-1,4-dihydroquinoline-3-carboxylic acid], the GI50 turned out to be 13.5 ± 1.45 µM in assay [1] (Homo sapiens, SK-OV-3, 72 h, 50% cell growth inhibition, 72 hours of treatment, cell count, ND = activity not dose dependent); 31 ± 6.75 µM in assay [2]; 18.1 ± 8.25 µM in assay [3]. For the same compound, in [1] (versus enoxacin), the “GI50 SKOV-3, fold lower than enoxacin” value was “about 9 fold”. Also, the “binding affinity for TRBP, fold stronger than enoxacin” value in assay [4] is listed as “approximately 40 fold”. In addition, the “trapping/inhibition of hTopII (cleavage assay)” value in assay [5] is “no inhibition or trapping activity”. Further, in assay [6] (50 μM, 6 hours), the “miRNA enhancing effect: Renilla luciferase activity, psi-R21 construct” value was “decrease in Renilla luciferase activity”. Besides, in assay [6] (construct lacking the miR-21-5p binding site), the “Renilla luciferase activity, control construct psi-CTRL” value was “no significant variation”. Besides, the “effect on MCF-7 cell proliferation” value in [7] is “significant inhibitory effect on cell proliferation”. In addition, the “effect on HCT-116 cell proliferation” value in assay [8] was “significant inhibitory effect on cell proliferation”. The “sensitivity of A2780 CIS and A2780 to 33 alone” value in assay [9] (30 μM) is recorded as “equal sensitivity”. Also, in [9] (33 30 μM + cisplatin 1 μM), the “effect of 33 in combination with cisplatin on A2780 CIS” value is “synergistic effect; also recorded: sensitized A2780 CIS to cisplatin”.
